Experiments:
Format in all cases: cell-based
[1] = tested on: human lung cancer cell line A549; experiment: THP-1-mediated antibody-dependent phagocytic activity against A549; settings: THP-1 coculture 2.5 hours
Description: (§1) Specifically, in each combination test group (a romidepsin combination test group, a panobinostat combination test group, and a cisplatin combination test group), the indicated drug used in combination was applied to human cancer cells, and then the cancer cells were cocultured with human monocytic cells (THP-1) in the presence of the anti-CAPRIN-1 antibody, and the antibody-mediated phagocytic activity against the cancer cells by THP-1 was evaluated. […] The concentration of the drug used in combination was set to a concentration that decreased the proliferation rate of the cancer cells by about half at the completion of culture. As a control, a test group without a drug used in combination was established. […] Further, dead cells were stained with propidium iodide (PI) (final concentration: 0.1 μg/mL), followed by the measurement of fluorescence from the cells by flow cytometry. PI-positive dead cells were excluded from analysis. The human monocytic cells THP-1 recognize an antibody bound onto cancer cells and phagocytize the cancer cells. At that time, if the cancer cells have been stained with calcein-AM, the monocytic cells ingesting the cancer cells by phagocytosis also become positive to calcein-AM. Thus, the phagocytic activity in this evaluation system was calculated as the ratio (%) of APC-positive/calcein-AM-positive cells to the whole calcein-AM-positive population.

[2] = tested on: human prostate cancer cell line DU145; experiment: THP-1-mediated antibody-dependent phagocytic activity against DU145; settings: THP-1 coculture 2.5 hours
Description: as §1

[3] = tested on: human colon cancer cell line HCT116; experiment: THP-1-mediated antibody-dependent phagocytic activity against HCT116; settings: panobinostat combination test group (10 nM, 2 days) with anti-CAPRIN-1 antibody, THP-1 coculture 2.5 hours
Description: as §1

[4] = tested on: human breast cancer cell line MDA-MB-231; experiment: THP-1-mediated antibody-dependent phagocytic activity against MDA-MB-231; settings: panobinostat combination test group (30 nM, 2 days) with anti-CAPRIN-1 antibody, THP-1 coculture 1 hour
Description: (§2) Specifically, in each combination test group (a romidepsin combination test group and a panobinostat combination test group), the indicated drug used in combination was applied to human cancer cells, and then the cancer cells were cocultured with human monocytic cells (THP-1) in the presence of the anti-CAPRIN-1 antibody, and the antibody-mediated phagocytic activity against the cancer cells by THP-1 was evaluated. […] As a control, a test group without a drug used in combination was established. […] Further, dead cells were stained with propidium iodide (PI) (final concentration: 0.1 μg/mL), followed by the measurement of fluorescence from the cells by flow cytometry. PI-positive dead cells were excluded from analysis. The human monocytic cells THP-1 recognize an antibody bound onto cancer cells and phagocytize the cancer cells. At that time, if the cancer cells have been stained with calcein-AM, the monocytic cells ingesting the cancer cells by phagocytosis also become positive to calcein-AM. Thus, the phagocytic activity in this evaluation system was calculated as the ratio (%) of APC-positive/calcein-AM-positive cells to the whole calcein-AM-positive population.

[5] = tested on: human ovarian cancer cell line TOV-21G; experiment: THP-1-mediated antibody-dependent phagocytic activity against TOV-21G; settings: panobinostat combination test group (30 nM, 2 days) with anti-CAPRIN-1 antibody, THP-1 coculture 1 hour
Description: as §2

[6] = tested on: human uterus cancer cell line MFE-296; experiment: THP-1-mediated antibody-dependent phagocytic activity against MFE-296; settings: romidepsin combination test group (20 nM, 2 days) with anti-CAPRIN-1 antibody, THP-1 coculture 1 hour
Description: as §2

[7] = tested on: human bile duct cancer cell line KKU-100; experiment: THP-1-mediated antibody-dependent phagocytic activity against KKU-100; settings: romidepsin combination test group (2 nM, 2 days) with anti-CAPRIN-1 antibody, THP-1 coculture 1 hour
Description: as §2

[8] = panobinostat combination test group (10 nM, 2 days) with anti-CAPRIN-1 antibody
[9] = romidepsin combination test group (1 nM, 2 days) with anti-CAPRIN-1 antibody

With `N.N.[Cl][Pt][Cl]` [cisplatin] the “phagocytic activity against cancer cells” value ([1]; cisplatin combination test group (20 μM, 2 days) with anti-CAPRIN-1 antibody) was 13%.

For `Cc1[nH]c2ccccc2c1CCNCc1ccc(/C=C/C(=O)NO)cc1` [panobinostat, (2E)-N-Hydroxy-3-[4-({[2-(2-methyl-TH-indol-3-yl)ethyl]amino}methyl)phenyl]prop-2-enamide], the “phagocytic activity against cancer cells” value [2, 8] was 8%, the “phagocytic activity against cancer cells” value [3] was 32% and the “phagocytic activity against cancer cells” value [4] was 41%. The “phagocytic activity against cancer cells” value [1, 8] was 15% and the “phagocytic activity against cancer cells” value [5] was 81%.

`C/C=C1\NC(=O)[C@H]2CSSCC/C=C/[C@H](CC(=O)N[C@H](C(C)C)C(=O)N2)OC(=O)[C@H](C(C)C)NC1=O` [romidepsin, (1S,4S,10S,16E,21R)-7-[(2Z)-ethylidene]-4,21-bis(1-methylethyl)-2-oxa-12,13-dithia-5,8,20,23-tetraazabicyclo[8.7.6]tricos-16-ene-3,6,9,19,22-pentone] was tested, and the “phagocytic activity against cancer cells” value [6] was ≥ 27%, the “phagocytic activity against cancer cells” value [2, 9] was 8% and the “phagocytic activity against cancer cells” value [7] was ≥ 14%. The “phagocytic activity against cancer cells” value [1, 9] was 29%.
